These results are taken from patent publication US20240294543A1, “CYCLOHEPTA-THIENO-DIAZEPINE DERIVATIVES AS GABA A GAMMA1 PAM” (Hoffmann-La Roche Inc., priority 2021, published 2024).

The Ki is a measure of affinity in units of concentration, obtained from inhibition or displacement. A lower Ki goes with higher affinity.

Experiment [1] has as its target human GABAA α5β2γ1 receptor (Homo sapiens (Human), UniProt P31644+Q8N1C3). As to the kind of experiment: Radioligand binding assay, competition for [3H]RO7239181, γ1-containing GABAA subtypes.
Another experiment has as its target h-GABA-A α2β2γ1 (Homo sapiens (Human), UniProt P47869+Q8N1C3). As to the kind of experiment: Two-electrode voltage clamp electrophysiology in Xenopus oocytes expressing GABAA receptors. The format is cell-based. The note with it: for Efficacy (GABA) %: % modulation of GABA EC20 = 100*(Fold increase−1), compound at about 30-fold its Ki α2β2γ1; for Fold increase h-GABA-A α2β2γ1 oocyte @ 30-fold Ki: Xenopus oocytes, GABA EC20, compound at about 30-fold its Ki α2β2γ1. As to the method: Xenopus Oocytes Preparation Xenopus laevis oocytes at maturation stages V-VI were used for the expression of cloned mRNA encoding GABAA receptor subunits. Oocytes ready for RNA micro-injection were bought from Ecocyte, Castrop-Rauxel, Germany and stored in modified Barth's medium (composition in mM: NaCl 88, KCl 1, NaHCO3 2.4, HEPES 10, MgSO4 0.82, CaNO3 0.33, CaCl2 0.33, pH=7.5) at 20° C. until the experiment.
Oocytes were plated in 96-well plates for microinjection using the Roboinject automated instrument (MultiChannelSystems, Reutlingen, Germany). Approximately 50 nL of an aqueous solution containing the RNA transcripts for the subunits of the desired GABAA receptor subtype was injected into each oocyte. […] Oocytes were kept in modified Barth's medium (composition in mM: NaCl 88, KCl 1, NaHCO3 […], HEPES 10, MgSO4 0.82, CaNO3 0.33, CaCl2 0.33, pH=7.5) at 20° C. until the experiment.
Electrophysiological experiments were performed using the Roboocyte instrument (MultiChannelSystems, Reutlingen, Germany) on days 3 to 5 after the micro-injection of mRNA. During the experiment the oocytes were constantly superfused by a solution containing (in mM) NaCl 90, KCl 1, HEPES 5, MgCl2 1, CaCl2 1 (pH 7.4). Oocytes were impaled by two glass microelectrodes (resistance: 0.5-0.8 MQ) which were filled with a solution containing KCl 1M+K-acetate 1.5 M and voltage-clamped to −80 mV. The recordings were performed at room temperature using the Roboocyte two-electrode voltage clamp system (Multichannelsystem). After an initial equilibration period of 1.5 min GABA was added for 1.5 min at a concentration evoking approximately 20% of a maximal current response (EC20). After another rest interval of 2.5 min GABA was again added evoking a response of similar amplitude and shape. […] Current traces were recorded at a digitization rate of 10 Hz during and shortly before and after the GABA application.
Each compound and concentration was tested on at least 3 oocytes. Different oocytes were used for different compound concentrations.
For the analysis, the digitized current traces of the first and second GABA response were superimposed and, if necessary, rescaled to equal maximal amplitudes. The ratio between the two responses during the time interval of test compound application was calculated point by point. The extremum of the resulting “ratio trace” was taken as the efficacy (“Fold increase”) of the compound expressed as “% modulation of GABA EC20” (100*(Fold increase−1)).
In general terms: In two-electrode clamp one electrode senses voltage and the other passes current.

In experiment [1], `C[C@@H]1N=C(c2c(F)cccc2F)c2c(sc3c2COCCO3)-n2nc(C(=O)NC[C@](C)(O)C(F)(F)F)nc21` [Example 47, (7S)-9-(2,6-difluorophenyl)-7-methyl-N-[(2S)-3,3,3-trifluoro-2-hydroxy-2-methyl-propyl]-13,16-dioxa-18-thia-2,3,5,8-tetrazatetracyclo[8.8.0.02,6.011,17]octadeca-1(10),3,5,8,11(17)-pentaene-4-carboxamide] displayed a Ki of 4.43 nM. Besides, at h-GABA-A α2β2γ1, the “Efficacy (GABA) %” value was 89% and the “Fold increase h-GABA-A α2β2γ1 oocyte @ 30-fold Ki” value is reported as 1.89.
The corresponding values for `CCc1nnc2n1-c1sc3c(c1C(c1c(F)cccc1F)=N[C@H]2C)COCCO3` [Example 42, (7S)-9-(2,6-difluorophenyl)-3-ethyl-7-methyl-13,16-dioxa-18-thia-2,4,5,8-tetrazatetracyclo[8.8.0.02,6.011,17]octadeca-1(10),3,5,8,11(17)-pentaene] are 2.9 nM, 137% and 2.37.
`C[C@@H]1N=C(c2c(F)cccc2F)c2c(sc3c2COCCO3)-n2cc(C(=O)NCC3(O)CC3)nc21` [Example 65, (7S)-9-(2,6-difluorophenyl)-N-[(1-hydroxycyclopropyl)methyl]-7-methyl-13,16-dioxa-18-thia-2,5,8-triazatetracyclo[8.8.0.02,6.011,17]octadeca-1(10),3,5,8,11(17)-pentaene-4-carboxamide] registered a Ki in experiment [1] of 1.69 nM. At h-GABA-A α2β2γ1, the “Efficacy (GABA) %” value is recorded as 169% and the “Fold increase h-GABA-A α2β2γ1 oocyte @ 30-fold Ki” value was 2.69.
`C[C@@H]1N=C(c2c(F)cccc2F)c2c(sc3c2COCCO3)-n2c(C(F)F)nnc21` [Example 48, (7S)-3-(difluoromethyl)-9-(2,6-difluorophenyl)-7-methyl-13,16-dioxa-18-thia-2,4,5,8-tetrazatetracyclo[8.8.0.02,6.011,17]octadeca-1(10),3,5,8,11(17)-pentaene]: affinity in experiment [1] was put at a Ki of 13.5 nM. Further, at h-GABA-A α2β2γ1, the “Efficacy (GABA) %” value is listed as 144% and the “Fold increase h-GABA-A α2β2γ1 oocyte @ 30-fold Ki” value turned out to be 2.44.
The corresponding values for `Cc1nnc2n1-c1sc3c(c1C(c1c(F)cccc1F)=N[C@H]2C)COCCC3` [Example 52, (7S)-9-(2,6-difluorophenyl)-3,7-dimethyl-13-oxa-18-thia-2,4,5,8-tetrazatetracyclo[8.8.0.02,6.011,17]octadeca-1(10),3,5,8,11(17)-pentaene] are 7.6 nM, 170% and 2.70.
For `Cc1nnc2n1-c1sc3c(c1C(c1c(F)cccc1F)=N[C@H]2C)CCCC(F)(F)C3` [Example 8, (7S)-9-(2,6-difluorophenyl)-15,15-difluoro-3,7-dimethyl-18-thia-2,4,5,8-tetrazatetracyclo[8.8.0.02,6.011,17]octadeca-1(10),3,5,8,11(17)-pentaene], the Ki in experiment [1] came to 12.8 nM. Besides, on h-GABA-A α2β2γ1, the “Efficacy (GABA) %” value was 203% and the “Fold increase h-GABA-A α2β2γ1 oocyte @ 30-fold Ki” value was determined as 3.03.
In the same order, the values of `Cc1nnc2n1-c1sc3c(c1C(c1c(F)cccc1F)=NC2)CCCCO3` [Example 18, 9-(2,6-difluorophenyl)-3-methyl-16-oxa-18-thia-2,4,5,8-tetrazatetracyclo[8.8.0.02,6.011,17]octadeca-1(10),3,5,8,11(17)-pentaene] are 1.84 nM, 113% and 2.13.
In the same order, the values of `Cc1nnc2n1-c1sc3c(c1C(c1c(F)cccc1F)=N[C@H]2C)COC[C@H](C)O3` [Example 30, (7S,15S)-9-(2,6-difluorophenyl)-3,7,15-trimethyl-13,16-dioxa-18-thia-2,4,5,8-tetrazatetracyclo[8.8.0.02,6.011,17]octadeca-1(10),3,5,8,11(17)-pentaene] are 3.28 nM, 150% and 2.50.
